Tests used:
CXCR7 receptor [1] = target: T1, CXCR7 receptor (Homo sapiens (Human), UniProt P25106); test: Serum Binding Analysis: displacement of 125I SDF-1 from CXCR7 in 100% human serum; conditions: 100% human serum (human AB serum with 10 mM HEPES), MCF-7 and/or MDA-MB-435S CXCR7 transfected cells, 125I SDF-1, 3 hrs at 4° C.; read-out: Avg Ser IC50
Method: (§1) The ability of the compounds to displace the labeled chemokine from the CXCR7 receptor sites at multiple concentrations was then determined with the screening process.
(§2) ^125I-labeled SDF-1 was purchased from Perkin-Elmer Life Sciences, Inc. (Boston, Mass.). The MCF-7 (adenocarcinoma; mammary gland) cell line was obtained from the American Type Culture Collection (ATCC, Manassas, Va.) or and was cultured in DMEM (Mediatech, Herndon, Va.) supplemented with 10% fetal bovine serum (FBS) (HyClone Logan, Utah) and bovine insulin (0.01 mg/mL) (Sigma, St. Louis, Mo.) at 37° C. in a humidified incubator at a 5% CO2/air mixture. CXCR7 transfected MDA-MB-435S were produced as described below. MDA-MB-435 S human breast cancer line, was purchased from ATCC, and cultured in DMEM/10% FBS medium. The complete coding sequence of the gene encoding CXCR7 (a.k.a. CCXCKR2, hRDC1), was isolated from MCF-7 cells using MACs mRNA isolation kit (Miltenyi Biotec, Auburn, Calif.). DNA contamination was removed by DNase digestion via RNeasy columns (Qiagen, Inc., Valencia, Calif.) and cDNA was generated using GeneAmp RNA PCR Core Kit (Applied Biosystems, Foster City, Calif.). PCR of cDNA samples was performed using Taq PCR Master Mix kit (Qiagen, Inc.) and hRDC1 primers harboring 5′ and 3′ Not I sites (hRDC1F 5′ […]-3′, hRDC1R 5′-[…]-3′) Not I digested PCR product was ligated into Not I digested pcDNA3.1 (+)(Invitrogen, Carlsbad, Calif.) and screened for orientation and sequence confirmed. Plasmid DNA was then isolated from overnight bacterial cultures by Maxiprep (Qiagen, Inc.). Plasmid DNA (10 μg) was added to MDA-MB-435s cells and cells were electroporated (0.22 kV, 960 uF) via Gene Pulser (Biorad laboratories, Hercules, Calif.). 48 hr post-electroporation, cells were transferred to selection medium (600 ug/ml G418).
In order to more properly assess the binding efficacy of the compounds, radioligand binding assays were carried out in the presence of 100% human serum to more accurately reflect the in vivo environment. […] Target compounds were tested to determine their ability to bind with CXCR7 sites on MCF-7 and/or MDA-MB-435S CXCR7 transfected cells. Efficiency-maximized radioligand binding using filtration protocols as described in Dairaghi D J, et al., HHV8-encoded vMIP-I selectively engages chemokine receptor CCR5. Agonist and antagonist profiles of viral chemokines., J. Biol. Chem. 1999 Jul. 30; 274(31): 21569-74 and Gosling J, et al., Cutting edge: identification of a novel chemokine receptor that binds dendritic cell- and T cell-active chemokines including ELC, SLC, and TECK., J. Immunol. 2000 Mar. 15; 164(6):2851-6 was used.
In these assays, MCF-7 and/or MDA-MB-435S cells were interrogated with the target compounds and the ability of these compounds to displace 125 I radiolabeled SDF-1 was assessed using the protocol described in Dairaghi and Gosling. The target compounds were added to the plate to the indicated concentration followed by addition of cells and radiolabeled chemokine (125I SDF-1), both in the following medium (human AB serum with 10 mM HEPES added to stabilize at pH 7.4). All assays were then incubated for 3 hrs at 4° C. with gentle agitation. Following incubation in all binding assays, reactions were aspirated onto PEI-treated GF/B glass filters (Packard) using a cell harvester (Packard) and washed twice (25 mM HEPES, 500 mM NaCl, 1 mM CaCl2, 5 mM MgCl2, adjusted to pH 7.1). Scintillant (MicroScint 10, Packard) was added to the wells, and the filters were counted in a Packard Topcount scintillation counter. Data were analyzed and plotted using GraphPad Prism (GraphPad Software).

[2] = tested on: C6 cells implanted into the brains of Sprague-Dawley rats; test: Rat C6 model of glioblastoma; type: in vivo; conditions: tumors irradiated after 7 days with 5-20 Gy, then treated with compound
Method: Many tumor models in animals are known in the art, and may be employed to evaluate a compound of instance. For instance, in a rat C6 model of glioblastoma, 1×10^6 C6 cells were implanted by stereotactic injection into the into the brains of Sprague-Dawley rats. After 7 days tumors were irradiated with between 5-20 Gy of radiation. Following irradiation rats were treated (eg via subcutaneous, intraperitoneal, oral, parenteral or other route) with compound or vehicle control and tumors are allowed to progress. Animals were followed until death or loss of >20% weight, or removed for tumor induced neurodeficits eg seizures and immobility in according with appropriate regulations and standards.

CXCR7 receptor [3] = target: T1, CXCR7 receptor; test: Buffer Binding Analysis: displacement of 125I-labeled SDF-1 from CXCR7 on cells; conditions: buffer binding medium, MCF-7 and/or MDA-MB-435S CXCR7 transfected cells, 125I SDF-1, 3 hr at 4° C.; read-out: Avg Bind IC50
Method: as §1, §2
Target compounds can be tested to determine their ability to bind with CXCR7 sites on MCF-7 and/or MDA-MB-435S CXCR7 transfected cells. Efficiency-maximized radioligand binding using filtration protocols as described in Dairaghi D J, et al., HHV8-encoded vMIP-1 selectively engages chemokine receptor CCR5. Agonist and antagonist profiles of viral chemokines., J. Biol. Chem. 1999 Jul. […]
In these assays, MCF-7 and/or MDA-MB-435S cells are interrogated with the target compounds and the ability of these compounds to displace ^125I radiolabeled SDF-1 assessed using the protocol described in Dairaghi and Gosling. […] Scintillant (MicroScint 10, Packard) is added to the wells, and the filters counted in a Packard Topcount scintillation counter. Data are analyzed and plotted using GraphPad Prism (GraphPad Software).

T1 sequence (P25106 whole entry): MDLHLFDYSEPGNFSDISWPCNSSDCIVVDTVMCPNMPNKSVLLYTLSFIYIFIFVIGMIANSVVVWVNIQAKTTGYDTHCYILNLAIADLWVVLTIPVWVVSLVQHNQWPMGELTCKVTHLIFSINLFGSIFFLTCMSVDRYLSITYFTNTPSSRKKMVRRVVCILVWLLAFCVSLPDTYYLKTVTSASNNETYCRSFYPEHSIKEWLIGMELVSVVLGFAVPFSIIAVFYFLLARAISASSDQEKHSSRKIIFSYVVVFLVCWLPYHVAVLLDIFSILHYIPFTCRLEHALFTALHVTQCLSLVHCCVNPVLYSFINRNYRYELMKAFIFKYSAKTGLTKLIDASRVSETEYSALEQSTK

Structure (SMILES) | IC50 (CXCR7 receptor [1]) [nM] | IC50 (CXCR7 receptor [3]) [nM] | antitumor activity (delay in tumor growth vs vehicle treated control; Kaplan Meier analysis of survival) [2]
O=C(N[C@@H]1CCN(c2nccn3ccnc23)C1)c1ncn(-c2ccccc2)n1 [Compound 1.027] | 500 to 2500 |  | 
O=C(N[C@H]1CCN(c2nccn3ccnc23)C1)c1csc(N2CCC3(CC3)C(O)C2)n1 (stereo partly shown) [Compound 1.047] | 2500 to 15000 |  | 
O=C(N[C@H]1CCN(c2nccn3ccnc23)C1)c1ncn(-c2ccc(F)cc2)n1 [Compound 1.090] |  |  | profound antitumor activity
O=C(N[C@H]1CCN(c2nccn3cnnc23)C1)c1ncn(-c2ccccc2)n1 [Compound 1.127] | 500 to 2500 |  | 

Second part, led by results:

IC50 (CXCR7 receptor [1]) [nM] | IC50 (CXCR7 receptor [3]) [nM] | Structure (SMILES) | antitumor activity (delay in tumor growth vs vehicle treated control; Kaplan Meier analysis of survival) [2]
≤ 500 |  | CN(C)c1cnc(C(=O)N[C@H]2CCN(c3nccn4cccc34)C2)nc1 [Compound 1.049] | 
≤ 500 | ≤ 500 | Cc1ccn2ccnc(N3CC[C@H](NC(=O)c4csc(N5CCC(O)CC5)n4)C3)c12 [Compound 1.097] | 
≤ 500 | ≤ 500 | O=C(N[C@H]1CCN(c2nccn3cccc23)C1)c1csc(N2CCC(O)CC2)n1 [Compound 1.098] | 
≤ 500 | ≤ 500 | O=C(N[C@H]1CCN(c2nccn3ccnc23)C1)c1noc(-c2ccccc2)n1 [Compound 1.121] | 
≤ 500 | ≤ 500 | O=C(N[C@H]1CCN(c2nccn3cccc23)C1)c1ccn(-c2ccc(F)cc2)n1 [Compound 1.128] | 

Reference: patent US11059825B2, “CXCR7 antagonists” (CHEMOCENTRYX, INC., priority 2012, dated 2021)
